For 1 compound, Km results are on record in paper PMC5023282, “A rapid fluorometric assay for the S-malonyltransacylase FabD and other sulfhydryl utilizing enzymes” (Journal of Biological Methods, 2016).

SMILES strings stand for the structures.

This experiment has as its target T1, FabD (malonyl-coenzyme A transacylase; malonyl-CoA:ACP transacylase) (Escherichia coli, UniProt P0AAI9).
T1 construct: full ORF in pET28b (NcoI/EcoRI), one extra N-terminal glycine, no His tag; expressed in E. coli BL21* DE3
Kind of experiment: CPM fluorescence detection of CoA-SH after TCA precipitation of holo-ACP, initial rates. The format is biochemical. Particulars: holo-ACP 125 µM; 25 mM MOPS, 100 mM NaCl, 1 mg/ml BSA, pH 7.1, 30°C. An excerpt:
CPM fluorescence detection of CoA-SH after TCA precipitation of holo-ACP, initial rates on FabD (malonyl-coenzyme A transacylase; malonyl-CoA:ACP transacylase)

T1 sequence (P0AAI9 2-309): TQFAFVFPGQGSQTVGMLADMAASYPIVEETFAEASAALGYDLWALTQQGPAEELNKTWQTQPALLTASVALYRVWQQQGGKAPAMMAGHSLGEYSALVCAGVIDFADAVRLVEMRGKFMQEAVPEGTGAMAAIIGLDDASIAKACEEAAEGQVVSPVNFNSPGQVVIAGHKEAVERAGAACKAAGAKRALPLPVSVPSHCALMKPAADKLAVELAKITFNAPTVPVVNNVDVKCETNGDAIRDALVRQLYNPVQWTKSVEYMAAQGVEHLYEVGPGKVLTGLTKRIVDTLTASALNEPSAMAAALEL

A word on the Km: it is the substrate concentration at which the rate is half of its maximum. As for `CC(C)(COP(=O)(O)OP(=O)(O)OC[C@H]1O[C@@H](n2cnc3c(N)ncnc32)[C@H](O)[C@@H]1OP(=O)(O)O)[C@@H](O)C(=O)NCCC(=O)NCCSC(=O)CC(=O)O` [malonyl-CoA], the Km was 60 ± 20 µM.
